PubChem BioAssay AID1259411 (Chemical Carcinogenesis Research Information System (CCRIS), 2018)
Active and inactive are the calls of the source. No rule for the calls is given here.

System: rodent carcinogenicity bioassays, tumor incidence
Experiment: CCRIS carcinogenicity studies
Outline: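 NCI-built, expert-reviewed records of carcinogenicity and related test outcomes (mutagenicity, tumor promotion/inhibition) compiled from published and report sources, historical span 1985-2011, not updated.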

`Cc1cc(-c2ccccc2C)ccc1N` was tested. Which carcinogen call (Species: HAMSTER, Strain/Sex: SYRIAN/FEMALE, Route: SUBCUTANEOUS, Dose: 0, 100 MG/KG BW 1/WK FOR 20 WK (STUDY DURATION: 50 WK), Tumor Site: Type of Lesion: URINARY BLADDER: CARCINOMA) did it give?
Its carcinogen call is “active; positive”.

And the carcinogen call (Species: HAMSTER, Strain/Sex: SYRIAN/FEMALE, Route: SUBCUTANEOUS, Dose: 0.15 MMOL/KG IN PEANUT OIL 1/WK FOR 37 WK (TOTAL DOSE: 5.6 MMOL/KG), Tumor Site: Type of Lesion: URINARY BLADDER: TRANSITIONAL CELL CARCINOMA, SQUAMOUS CELL CARCINOMA)?
Its carcinogen call is “active; positive”.

And the carcinogen call (Species: HAMSTER, Strain/Sex: SYRIAN/MALE,FEMALE, Route: SUBCUTANEOUS, Dose: 100 MG/KG 1/WK FOR 52 WK, Tumor Site: Type of Lesion: URINARY BLADDER: PAPILLOMA, CARCINOMA)?
Its carcinogen call is “active; positive”.

What about the carcinogen call (Species: HAMSTER, Strain/Sex: SYRIAN/MALE, Route: SUBCUTANEOUS, Dose: 0, 100 MG/KG BW 1/WK FOR 20 WK (STUDY DURATION: 50 WK), Tumor Site: Type of Lesion: URINARY BLADDER: CARCINOMA) of the same compound?
The carcinogen call was “active; positive”.

What about the carcinogen call (Species: HAMSTER, Strain/Sex: SYRIAN/MALE, Route: SUBCUTANEOUS, Dose: 0, 100 MG/KG IN PEANUT OIL 1/WK FOR 8 WK, THEN ONCE EVERY 2 WK FOR 18 MO (TOTAL MAXIMUM DOSE: 555 MG), Tumor Site: Type of Lesion: URINARY BLADDER: TRANSITIONAL CELL CARCINOMA, FORESTOMACH: SQUAMOUS CELL PAPILLOMA, INTESTINES (SMALL): ADENOCARCINOMA;, Tumor Site: Type of Lesion: URINARY BLADDER: TRANSITIONAL CELL CARCINOMA, FORESTOMACH: SQUAMOUS CELL PAPILLOMA, INTESTINES (SMALL): ADENOCARCINOMA) of the same compound?
Its carcinogen call is “active; positive”.

And the carcinogen call (Species: HAMSTER, Strain/Sex: SYRIAN/MALE, Route: SUBCUTANEOUS, Dose: 0.15 MMOL/KG IN PEANUT OIL 1/WK FOR 37 WK (TOTAL DOSE: 5.6 MMOL/KG), Tumor Site: Type of Lesion: URINARY BLADDER: TRANSITIONAL CELL CARCINOMA)?
Its carcinogen call is “active; positive”.

And the carcinogen call (Species: RAT, Strain/Sex: ALBINO/MALE, Route: SUBCUTANEOUS, Dose: 2.8-3.5 G/KG, Tumor Site: Type of Lesion: INTESTINES, SALIVARY GLAND, EAR (DUCT), Tumor Site: Type of Lesion: INTESTINES, SALIVARY GLAND, EAR (DUCT))?
The carcinogen call was “active; positive”.

What about the carcinogen call (Species: RAT, Strain/Sex: F344/MALE, Route: SUBCUTANEOUS, Dose: 0, 150 MG/KG 1/WK FOR 3 WK FOLLOWED BY HIGH FAT DIET (20% CORN OIL) BEGINNING 12 WK POST LAST CARCINOGEN DOSE AND CONTIN, Tumor Site: Type of Lesion: PANCREAS: ADENOMA OR CARCINOMA) of the same compound?
The carcinogen call was “active; positive”.

What about the carcinogen call (Species: RAT, Strain/Sex: F344/MALE, Route: SUBCUTANEOUS, Dose: 0, 150 MG/KG 1/WK FOR 3 WK FOLLOWED BY NORMAL FAT DIET (4.5% CORN OIL) BEGINNING 12 WK POST LAST CARCINOGEN DOSE AND CON, Tumor Site: Type of Lesion: PANCREAS: ADENOMA OR CARCINOMA) of the same compound?
The carcinogen call was “active; positive”.

And the carcinogen call (Species: RAT, Strain/Sex: F344/MALE, Route: SUBCUTANEOUS, Dose: 20 MG/KG 1/WK FOR 42 WK OR 50 MG/KG 1/WK FOR 20 WK, Tumor Site: Type of Lesion: PROSTATE GLAND: CARCINOMA (IN SITU))?
Its carcinogen call is “active; positive”.

What about the carcinogen call (Species: RAT, Strain/Sex: WISTAR/FEMALE, Route: SUBCUTANEOUS, Dose: 2 MG/100 G 5/WK FOR 12 WK, Tumor Site: Type of Lesion: MAMMARY GLAND: CARCINOMA) of the same compound?
Its carcinogen call is “active; positive”.

And the carcinogen call (Species: RAT, Strain/Sex: WISTAR/MALE,FEMALE, Route: SUBCUTANEOUS, Dose: 2 MG/100 G 5/WK FOR LIFE, Tumor Site: Type of Lesion: INTESTINES (LARGE): POLYPLOID TUMOR (MULTIPLE))?
The carcinogen call was “active; positive”.

Which carcinogen call (Species: MOUSE, Strain/Sex: CD-1/FEMALE, Route: INTRAPERITONEAL, Dose: 0, 28 NMOL (TOTAL DOSE) ADMINISTERED AS 1/7 OF DOSE WITHIN 24 HR AFTER BIRTH, 2/7 OF DOSE AT 8 D OLD, 4/7 OF DOSE AT 15) does the source give for `c1ccc2c(c1)ccc1cc3ccc4c(c3nc12)[C@@H]1O[C@@H]1CC4` here?
The carcinogen call was “inactive; negative”.

What about the carcinogen call (Species: MOUSE, Strain/Sex: CD-1/MALE, Route: INTRAPERITONEAL, Dose: 0, 28 NMOL (TOTAL DOSE) ADMINISTERED AS 1/7 OF DOSE WITHIN 24 HR AFTER BIRTH, 2/7 OF DOSE AT 8 D OLD, 4/7 OF DOSE AT 15) of the same compound?
The carcinogen call was “inactive; negative”.

Which carcinogen call (Species: MOUSE, Strain/Sex: B6C3F1/FEMALE, Route: GAVAGE, Dose: 0, 62.5, 125 MG/KG IN CORN OIL 5D/WK FOR 102 WK (STUDY DURATION: 104 WK), Dose: 0, 62.5, 125 MG/KG IN CORN OIL 5D/WK FOR 102 WK (STUDY DURATION: 104 WK)) does the source give for `CCCCCCc1ccc(O)cc1O` here?
The carcinogen call was “inactive; negative”.

And the carcinogen call (Species: MOUSE, Strain/Sex: B6C3F1/MALE, Route: GAVAGE, Dose: 0, 62.5, 125 MG/KG IN CORN OIL 5D/WK FOR 102 WK (STUDY DURATION: 104 WK), Dose: 0, 62.5, 125 MG/KG IN CORN OIL 5D/WK FOR 102 WK (STUDY DURATION: 104 WK), Tumor Site: Type of Lesion: ADRENAL GLAND: PHEOCHROMOCYTOMA, HARDERIAN GLAND: ADENOMA OR CARCINOMA)?
The carcinogen call was “equivocal”.

What about the carcinogen call (Species: RAT, Strain/Sex: F344/FEMALE, Route: GAVAGE, Dose: 0, 62.5, 125 MG/KG IN CORN OIL 5D/WK FOR 103 WK (STUDY DURATION: 104 WK), Dose: 0, 62.5, 125 MG/KG IN CORN OIL 5D/WK FOR 103 WK (STUDY DURATION: 104 WK)) of the same compound?
Its carcinogen call is “inactive; negative”.

What about the carcinogen call (Species: RAT, Strain/Sex: F344/MALE, Route: GAVAGE, Dose: 0, 62.5, 125 MG/KG IN CORN OIL 5D/WK FOR 103 WK (STUDY DURATION: 104 WK), Dose: 0, 62.5, 125 MG/KG IN CORN OIL 5D/WK FOR 103 WK (STUDY DURATION: 104 WK)) of the same compound?
The carcinogen call was “inactive; negative”.

Which results are given for `CN(C)c1nc(=O)n(C2CCCCC2)c(=O)n1C`?
carcinogen call (Species: DOG, Strain/Sex: BEAGLE/FEMALE, Route: ORAL, Dose: 0, 200, 1000 PPM IN DIET FOR 90 D OR 5000 PPM FOR 1 WK, THEN 2500 PPM FOR 4 D IN WK 2 THEN 3750 PPM FOR 3 D FOLLOWED BY, Dose: 0, 200, 1000 PPM IN DIET FOR 90 D OR 5000 PPM FOR 1 WK, THEN 2500 PPM FOR 4 D IN WK 2 THEN 3750 PPM FOR 3 D FOLLOWED BY): inactive; negative; carcinogen call (Species: DOG, Strain/Sex: BEAGLE/MALE, Route: ORAL, Dose: 0, 200, 1000 PPM IN DIET FOR 90 D OR 5000 PPM FOR 1 WK, THEN 2500 PPM FOR 4 D IN WK 2 THEN 3750 PPM FOR 3 D FOLLOWED BY, Dose: 0, 200, 1000 PPM IN DIET FOR 90 D OR 5000 PPM FOR 1 WK, THEN 2500 PPM FOR 4 D IN WK 2 THEN 3750 PPM FOR 3 D FOLLOWED BY): inactive; negative; carcinogen call (Species: MOUSE, Strain/Sex: CD-1/FEMALE, Route: ORAL, Dose: 0, 200, 2500, 10000 PPM IN DIET FOR 2 YR (STUDY DURATION: 2 YR), Dose: 0, 200, 2500, 10000 PPM IN DIET FOR 2 YR (STUDY DURATION: 2 YR)): inactive; negative; carcinogen call (Species: MOUSE, Strain/Sex: CD-1/MALE, Route: ORAL, Dose: 0, 200, 2500, 10000 PPM IN DIET FOR 2 YR (STUDY DURATION: 2 YR), Dose: 0, 200, 2500, 10000 PPM IN DIET FOR 2 YR (STUDY DURATION: 2 YR)): inactive; negative; carcinogen call (Species: RAT, Strain/Sex: CRL-CD/FEMALE, Route: ORAL, Dose: 0, 200, 1000, 2500 PPM IN DIET FOR 2 YR (STUDY DURATION: 2 YR), Dose: 0, 200, 1000, 2500 PPM IN DIET FOR 2 YR (STUDY DURATION: 2 YR)): inactive; negative; carcinogen call (Species: RAT, Strain/Sex: CRL-CD/MALE, Route: ORAL, Dose: 0, 200, 1000, 2500 PPM IN DIET FOR 2 YR (STUDY DURATION: 2 YR), Dose: 0, 200, 1000, 2500 PPM IN DIET FOR 2 YR (STUDY DURATION: 2 YR)): inactive; negative

What does the source list for `ClC1=C(Cl)C(Cl)(Cl)C(Cl)=C1Cl`?
carcinogen call (Species: MOUSE, Strain/Sex: B6C3F1/FEMALE, Route: INHALATION, Dose: 0, 0.01, 0.05, 0.2 PPM IN AIR 6 HR/D 5 D/WK FOR 104 WK (STUDY DURATION: 104 WK), Dose: 0, 0.01, 0.05, 0.2 PPM IN AIR 6 HR/D 5 D/WK FOR 104 WK (STUDY DURATION: 104 WK)): inactive; negative; carcinogen call (Species: MOUSE, Strain/Sex: B6C3F1/MALE, Route: INHALATION, Dose: 0, 0.01, 0.05, 0.2 PPM IN AIR 6 HR/D 5 D/WK FOR 104 WK (STUDY DURATION: 104 WK), Dose: 0, 0.01, 0.05, 0.2 PPM IN AIR 6 HR/D 5 D/WK FOR 104 WK (STUDY DURATION: 104 WK)): inactive; negative; carcinogen call (Species: RAT, Strain/Sex: F344/FEMALE, Route: INHALATION, Dose: 0, 0.01, 0.05, 0.2 PPM IN AIR 6 HR/D 5 D/WK FOR 104 WK (STUDY DURATION: 104 WK), Dose: 0, 0.01, 0.05, 0.2 PPM IN AIR 6 HR/D 5 D/WK FOR 104 WK (STUDY DURATION: 104 WK)): inactive; negative; carcinogen call (Species: RAT, Strain/Sex: F344/MALE, Route: INHALATION, Dose: 0, 0.01, 0.05, 0.2 PPM IN AIR 6 HR/D 5 D/WK FOR 104 WK (STUDY DURATION: 104 WK), Dose: 0, 0.01, 0.05, 0.2 PPM IN AIR 6 HR/D 5 D/WK FOR 104 WK (STUDY DURATION: 104 WK)): inactive; negative
